# From ChEMBL document CHEMBL3421550, “Diphenylpyrazoles as replication protein a inhibitors” (ACS Med Chem Lett, 2015)
# pKd: −log10 of the molar value.
# Columns and labels:
# [1] = target: T1, Replication protein A 70 kDa DNA-binding subunit (Homo sapiens, UniProt P27694)
# Description: Binding affinity to RPA70N protein (unknown origin) incubated for 1 hr using FITC-ATRIP/FITC-ATRIP2 peptide probe by fluorescence polarization anisotropy assay
# [2] = Intrinsic permeability in human Caco2 cells; type: ADME, cell-based; details: Caco-2, read-out: permeability
# [3] = target: T1, Replication protein A 70 kDa DNA-binding subunit; details: at 500 µM
# Description: Displacement of FITC-ATRIP/FITC-ATRIP2 peptide probe from RPA70N protein (unknown origin) at 500 uM incubated for 1 hr by fluorescence polarization anisotropy assay
# [4] = target: T1, Replication protein A 70 kDa DNA-binding subunit; test: Binding affinity to RPA70N protein (unknown origin) by HSQC NMR-based titration method
# T1 sequence (P27694 whole entry): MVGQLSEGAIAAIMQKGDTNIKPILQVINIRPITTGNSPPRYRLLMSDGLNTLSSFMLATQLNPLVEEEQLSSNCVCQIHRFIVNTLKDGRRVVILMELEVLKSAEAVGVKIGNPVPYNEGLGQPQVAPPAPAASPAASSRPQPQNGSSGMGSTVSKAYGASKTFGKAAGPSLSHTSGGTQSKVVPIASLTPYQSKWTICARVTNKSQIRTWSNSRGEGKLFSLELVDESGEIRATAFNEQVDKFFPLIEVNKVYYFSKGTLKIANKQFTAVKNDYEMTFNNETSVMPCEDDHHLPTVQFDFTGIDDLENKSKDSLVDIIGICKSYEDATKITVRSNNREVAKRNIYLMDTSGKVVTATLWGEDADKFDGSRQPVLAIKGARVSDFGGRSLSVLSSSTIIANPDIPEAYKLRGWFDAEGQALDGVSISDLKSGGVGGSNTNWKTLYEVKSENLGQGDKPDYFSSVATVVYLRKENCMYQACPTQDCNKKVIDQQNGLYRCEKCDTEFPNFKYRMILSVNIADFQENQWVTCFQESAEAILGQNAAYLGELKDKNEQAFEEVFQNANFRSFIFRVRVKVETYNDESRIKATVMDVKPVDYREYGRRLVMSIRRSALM
pKd [1],SMILES,other results
< 3.30,NCc1ccc(-c2cc(C(=O)O)nn2-c2ccc(Cl)c(Cl)c2)cc1,–
5.77,O=C(O)c1ccc(-c2ccc(C(=S)NCc3ccc(-c4ccnn4-c4ccc(Cl)c(Cl)c4)cc3)c(Cl)c2)o1,Papp [2]: 14.5 ×10⁻⁶ cm/s
3.85,COc1ccc(-c2cc(C(=O)O)nn2-c2cccc(Br)c2)cc1,–
4.15,O=C(O)c1cc(-c2ccc(CNS(=O)(=O)c3ccccc3)cc2)n(-c2ccc(Cl)c(Cl)c2)n1,–
6.26,O=C(O)c1cc(-c2ccc(CNC(=S)c3ccc(-c4ccc(C(=O)O)o4)cc3)cc2)n(-c2ccc(Cl)c(Cl)c2)n1,–
4.82,O=C(O)c1cc(-c2ccc(CNC(=S)c3ccc(Br)cc3)cc2)n(-c2ccc(Cl)c(Cl)c2)n1,–
< 3.30,O=C(O)c1cc(-c2ccco2)n(-c2ccc(Cl)c(Cl)c2)n1,–
< 3.30,COc1ccc(-c2cc(C(=O)O)nn2-c2ccc(Cl)cc2)cc1,inhibition [3]: 19%
< 3.30,COc1ccc(-c2cc(C(=O)O)nn2-c2ccc(Br)cc2)cc1,inhibition [3]: 24%
< 3.30,COc1ccc(-c2cc(C(=O)O)nn2-c2cccc(Cl)c2)cc1,inhibition [3]: 35%
6.27,O=C(O)c1cc(-c2ccc(CN3CCc4cc(-c5ccc(C(=O)O)o5)ccc4C3=S)cc2)n(-c2ccc(Cl)c(Cl)c2)n1,–
4.23,O=C(O)c1ccc(-c2cc(C(=O)O)nn2-c2ccc(Cl)c(Cl)c2)cc1,–
4.08,O=C(NCc1ccccc1)c1ccc(-c2cc(C(=O)O)nn2-c2ccc(Cl)c(Cl)c2)cc1,–
4.66,O=C(NCc1ccc(-c2ccc(C(=O)O)o2)cc1)c1cccc(-c2cc(C(=O)O)nn2-c2ccc(Cl)c(Cl)c2)c1,–
3.51,N#Cc1ccc(-c2cc(C(=O)O)nn2-c2ccc(Cl)c(Cl)c2)cc1,–
4.35,COc1ccc(CNC(=O)c2ccc(-c3cc(C(=O)O)nn3-c3ccc(Cl)c(Cl)c3)cc2)cc1,–
4.17,O=C(O)c1cc(-c2ccc(Cl)cc2)n(-c2ccc(Cl)c(Cl)c2)n1,pKd [4]: 4.27
< 3.30,O=C(O)c1cc(Cc2ccc(O)cc2)n(-c2ccc(Cl)c(Cl)c2)n1,–
4.64,COc1ccc(CNC(=S)c2ccc(-c3cc(C(=O)O)nn3-c3ccc(Cl)c(Cl)c3)cc2)cc1,–
5.60,O=C(O)c1cc(-c2ccc(C(=S)NCc3cccc(-c4ccc(C(=O)O)o4)c3)cc2)n(-c2ccc(Cl)c(Cl)c2)n1,–
–,O=C(O)c1cc(-c2ccccc2)n(-c2ccccc2)n1,pKd [4]: 2.94
4.05,O=C(NCc1ccc(-c2cc(C(=O)O)nn2-c2ccc(Cl)c(Cl)c2)cc1)c1ccccc1,–
5.03,O=C(O)c1cc(-c2ccc(CNC(=S)c3ccc(-c4nc(=O)o[nH]4)cc3)cc2)n(-c2ccc(Cl)c(Cl)c2)n1,–

pKd [1],SMILES,other results
5.03,O=C(NCc1ccc(-c2ccc(C(=O)O)o2)cc1Cl)c1ccc(-c2cc(C(=O)O)nn2-c2ccc(Cl)c(Cl)c2)cc1,–
< 3.30,COc1ccc(-n2nc(C(=O)O)cc2-c2ccccc2)cc1,inhibition [3]: 18%; pKd [4]: 3.05
4.47,NS(=O)(=O)c1ccc(C(=S)NCc2ccc(-c3cc(C(=O)O)nn3-c3ccc(Cl)c(Cl)c3)cc2)cc1,–
6.32,O=C(O)c1cc(-c2ccc(C(=S)NCc3ccc(-c4ccc(C(=O)O)o4)cc3Cl)cc2)n(-c2ccc(Cl)c(Cl)c2)n1,–
4.10,COc1ccc(-c2cc(C(=O)O)nn2-c2ccc(Cl)c(Cl)c2)cc1,–
5.82,O=C(O)c1cc(-c2ccc(C(=S)NCc3ccc(-c4ccc(C(=O)O)o4)cc3)cc2)n(-c2ccc(Cl)c(Cl)c2)n1,–
5.66,O=C(O)c1cc(-c2ccc(CNC(=S)c3ccc(-c4nnn[nH]4)cc3)cc2)n(-c2ccc(Cl)c(Cl)c2)n1,–
3.89,O=C(O)c1cccc(-c2cc(C(=O)O)nn2-c2ccc(Cl)c(Cl)c2)c1,–
5.09,CC(=O)N(Cc1ccc(-c2ccc(C(=O)O)o2)cc1)Cc1cccc(-c2cc(C(=O)O)nn2-c2ccc(Cl)c(Cl)c2)c1,–
4.05,Cc1cccc(-c2cc(C(=O)O)nn2-c2ccc(Cl)c(Cl)c2)c1,–
3.98,O=C(O)c1cc(-c2ccc(O)cc2)n(-c2ccc(Cl)c(Cl)c2)n1,–
4.25,O=C(O)c1cc(-c2ccc(CNS(=O)(=O)c3ccc(OC(F)(F)F)cc3)cc2)n(-c2ccc(Cl)c(Cl)c2)n1,–
< 3.30,COc1ccc(-c2cc(C(=O)O)nn2-c2cccc(C)c2)cc1,inhibition [3]: 20%
4.14,Cc1ccc(-c2cc(C(=O)O)nn2-c2ccc(Cl)c(Cl)c2)cc1,–
4.46,O=C(NCc1ccc(-c2cc(C(=O)O)nn2-c2ccc(Cl)c(Cl)c2)cc1)c1ccc(Br)cc1,–
< 3.30,Cc1cccc(-n2nc(C(=O)O)cc2-c2ccccc2)c1,pKd [4]: 3.24
3.91,O=C(O)c1cc(-c2ccccc2)n(-c2ccc(Cl)c(Cl)c2)n1,–
< 3.30,COc1ccc(-c2cc(C(=O)O)nn2-c2ccc(C)cc2)cc1,inhibition [3]: 15%
4.74,O=C(O)c1cc(-c2ccc(C(=S)NCc3ccccc3)cc2)n(-c2ccc(Cl)c(Cl)c2)n1,–
4.24,O=C(O)c1cc(-c2cccc(CNCc3ccc(-c4ccc(C(=O)O)o4)cc3)c2)n(-c2ccc(Cl)c(Cl)c2)n1,–
4.14,COc1ccc(C(=O)NCc2ccc(-c3cc(C(=O)O)nn3-c3ccc(Cl)c(Cl)c3)cc2)cc1,–
3.64,Nc1ccc(-c2cc(C(=O)O)nn2-c2ccc(Cl)c(Cl)c2)cc1,–

SMILES,pKd [1],other results
COc1ccc(-c2cc(C(=O)O)nn2C2CCCCC2)cc1,< 3.30,inhibition [3]: 9%
